Patent US9732061B2, “Cinnoline derivatives useful as CB-1 receptor inverse agonists” (Janssen Pharmaceutica NV, priority 2015, dated 2017)

Tests used:
[1] = target: Human CB1R (Cannabanoid receptor 1) (Homo sapiens (Human), UniProt P21554); experiment: CB-1 in vitro cAMP (HTRF) assay; format: cell-based; conditions: HEK-293 cells stably transfected with human CB1R, 250 nM Forskolin, mean where tested more than once
Text: (§1) CB1 and CB2 receptors are Gi-coupled GPCR. Activation of CB1 and CB2 receptors results in a decrease in cAMP production. An inverse agonist of the CB1 or CB2 receptor results in the opposite effect, an increase of cAMP production. The principle of this assay is based on HTRF® technology (Homogeneous Time-Resolved Fluorescence). The method is a competitive immunoassay between native cAMP produced by cells and the cAMP labeled with the fluorophore d2. The tracer binding is quantified by a Mab anti-cAMP labeled with Eu3+TBP-NHS Cryptate (supplied as part of the assay kit). The specific signal (i.e. energy transfer) is inversely proportional to the concentration of cAMP in the standard or sample.
(§2) Biological Example 1: CB-1 and CB-2 In Vitro Assay
(§3) Human CB1R (Cannabanoid receptor 1) was stably transfected in HEK-293 cells (DiscoveRx, cat: 93-0200C1). Human CB2R (Cannabanoid receptor 2) was stably transfected in HEK-293 cells (DiscoveRx, cat: 93-0201C1). Cell cultures were maintained in media: DMEM (Invitrogen Cat#12430-054) supplemented with 10% HI FBS (Invitrogen Cat#16140-071), 1% L-glutamine (Invitrogen Cat#25030-081), 0.2 mg/ml Hygromycin B (Invitrogen Cat#10687-010), 600 μg/mL G418 (Invitrogen Cat#10131-035), and 1×Penn/Strep (Invitrogen 15140-122). After cell expansion, aliquots were cryo-stored in media containing 5% DMSO (Pierce Cat#20684).
(§4) One day prior to experiments media was warmed to 37° C. and the cryo-stored cells were thawed in a 37° C. water bath. The cells were then added to media (10× volume) and the mixture was centrifugated at 1000 RPM for 5 min. The supernate was removed and the cells were re-suspended in media. A sample of the cell suspension was evaluated on a Cedex XS automated cell counter (Innovatis Systems) to determine viable cells/ml. Additional media was added to the cells to achieve a final cell density of 4E5 cells/mL. The cells were then plated into 384 well PDL white solid bottom plates (Greiner, Cat#781945) at 20 μL per well using a Multidrop (Thermo Scientific). Cells were removed from Row P (location of cAMP standards). Two columns of cells were plated into a clear bottom 384 well PDL coated plate (Greiner, Cat#781944) to view confluence the day of the assay. The cell plates were lidded and stored for 15 minutes in a hood, then transferred to an incubator (37° C., 5% CO2, 95% humidity) overnight.
(§5) DMSO was added to all wells of 384 well V bottom polystyrene plate (Greiner, Cat#781280) except to columns 1 and 13, rows O and P and wells M13-M23 and N13-N23. Test compounds (60 μL, 10 mM) were added to Column 1 and 13 (A1 through N1 and A13 through L13). Test compounds were serially diluted 1/3 by transferring and mixing 20 μl sample with 40 μL DMSO.
(§6) DMSO (40 μL) was added to wells of 384 well V bottom polystyrene plate: O2 through O11, M14 through M23, N14 through N23, and O14 through O23. AM630 (also known as [6-iodo-2-methyl-1-[2-(4-morpholinyl)ethyl]-1H-indol-3-yl](4-methoxyphenyl)-methanone, Cayman Chemical, Cat#10006974) (60 μL, 10 mM) was added to O1; and 1-(2,4-dichlorophenyl)-7-[(4-fluorophenyl)methylene]-4,5,6,7-tetrahydro-N-1-piperidinyl-1H-indazole-3-carboxamide (60 μL, 10 mM) was added to N13. The control was serially diluted 1/3 by transferring and mixing 20 μl sample with 40 μL DMSO. This process resulted 11 doses per control, 10 mM to […].
(§7) Cells plated the day prior to the assay in clear bottom plates were viewed on an inverse microscope to ensure confluency in the range of 60-75%. […]

[2] = target: Human CB2R (Cannabanoid receptor 2) (Homo sapiens (Human), UniProt P34972); experiment: CB-2 in vitro cAMP (HTRF) assay; format: cell-based; conditions: HEK-293 cells stably transfected with human CB2R, 250 nM Forskolin, mean where tested more than once
Text: as §1, §2, §3, §4, §5, §6, §7

Human CB2R (Cannabanoid receptor 2), sequence (P34972 whole entry): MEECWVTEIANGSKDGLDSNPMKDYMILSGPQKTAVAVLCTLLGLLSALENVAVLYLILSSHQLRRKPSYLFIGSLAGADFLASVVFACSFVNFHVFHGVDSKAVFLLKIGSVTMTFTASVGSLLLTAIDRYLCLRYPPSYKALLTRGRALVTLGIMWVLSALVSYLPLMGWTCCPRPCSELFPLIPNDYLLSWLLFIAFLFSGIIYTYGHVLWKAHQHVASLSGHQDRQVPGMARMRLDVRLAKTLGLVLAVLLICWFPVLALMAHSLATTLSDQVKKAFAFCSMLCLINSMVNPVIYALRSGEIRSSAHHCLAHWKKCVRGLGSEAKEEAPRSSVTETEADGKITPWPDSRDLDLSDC
Human CB1R (Cannabanoid receptor 1), sequence (P21554 whole entry): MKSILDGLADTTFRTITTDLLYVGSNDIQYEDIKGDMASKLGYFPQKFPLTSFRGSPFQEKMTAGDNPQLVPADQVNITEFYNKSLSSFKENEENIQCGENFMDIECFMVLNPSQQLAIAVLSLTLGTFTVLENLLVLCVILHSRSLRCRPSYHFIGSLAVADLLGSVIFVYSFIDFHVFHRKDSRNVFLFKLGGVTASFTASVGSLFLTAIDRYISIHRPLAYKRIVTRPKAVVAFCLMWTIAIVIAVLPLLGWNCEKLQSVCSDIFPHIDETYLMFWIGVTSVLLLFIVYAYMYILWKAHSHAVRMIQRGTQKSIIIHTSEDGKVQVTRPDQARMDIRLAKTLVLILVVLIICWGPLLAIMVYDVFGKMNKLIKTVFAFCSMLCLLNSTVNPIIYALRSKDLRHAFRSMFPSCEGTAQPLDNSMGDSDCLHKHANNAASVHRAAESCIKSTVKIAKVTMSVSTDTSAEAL

EC50 [1] [nM]	EC50 [2] [nM]	Compound
463	> 10000	O=C(c1ccccc1)N1CCC(Nc2cnnc3ccc(C(c4ccc(Cl)cc4)c4ccc(Cl)cc4)cc23)CC1 [Compound 3, (4-((6-(bis(4-chlorophenyl)methyl)cinnolin-4-yl)amino)piperidin-1-yl)(phenyl)methanone]
302	6500	O=C(O)c1cccc(CN2CCC(Nc3cnnc4ccc(C(c5ccc(Cl)cc5)c5ccc(Cl)cc5)cc34)CC2)c1 [Compound 12, 3-[[4-([6-[bis(4-chlorophenyl)methyl]cinnolin-4-yl]amino)piperidin-1-yl]methyl]benzoic acid]
5400	2790	O=C(O)c1ccc(CCNc2cnnc3ccc(C(c4ccc(Cl)cc4)c4ccc(Cl)cc4)cc23)cc1 [Compound 37, 4-(2-(6-(bis(4-chlorophenyl)methyl)cinnolin-4-ylamino)ethyl)benzoic acid]
79	4700	O=S(=O)(N1CCC(Nc2cnnc3ccc(C(c4ccc(F)cc4)c4ccc(F)cc4)cc23)CC1)C(F)(F)F [Compound 33, 6-(bis(4-fluorophenyl)methyl)-N-(1-(trifluoromethylsulfonyl)piperidin-4-yl)cinnolin-4-amine]
200	> 10000	CC(C)(C)OC(=O)N1CCC(Nc2cnnc3ccc(C(O)(c4ccc(Cl)cc4)c4ccc(Cl)cc4)cc23)CC1 [Compound 2, tert-butyl 4-((6-(bis(4-chlorophenyl)(hydroxy)methyl)cinnolin-4-yl)amino)piperidine-1-carboxylate]
40	1980	O=C(O)c1csc(S(=O)(=O)N2CCC(Nc3cnnc4ccc(C(c5ccc(Cl)cc5)c5ccc(Cl)cc5)cc34)CC2)c1 [Compound 32, 5-[4-([6-[bis(4-chlorophenyl)methyl]cinnolin-4-yl]amino)piperidine-1-sulfonyl]thiophene-3-carboxylic acid]
12	> 10000	FC(F)(F)c1cccc(CNc2cnnc3ccc(C(c4ccc(Cl)cc4)c4ccc(Cl)cc4)cc23)c1 [Compound 8, 6-(bis(4-chlorophenyl)methyl)-N-(3-(trifluoromethyl)benzyl)cinnolin-4-amine]
40	> 10000	FC(F)(F)c1ccc(CNc2cnnc3ccc(C(c4ccc(Cl)cc4)c4ccc(Cl)cc4)cc23)cc1 [Compound 9, 6-(bis(4-chlorophenyl)methyl)-N-(4-(trifluoromethyl)benzyl)cinnolin-4-amine]
11	396	COc1ccc(C(c2ccc(Cl)cc2)c2ccc3nncc(NC4CCN(S(=O)(=O)C(F)(F)F)CC4)c3c2)cc1 (stereo not shown) [Compound 35, 6-((4-chlorophenyl)(4-methoxyphenyl)methyl)-N-(1-(trifluoromethylsulfonyl)piperidin-4-yl)cinnolin-4-amine]
181	5250	O=C(O)c1cccc(S(=O)(=O)N2CCC(Nc3cnnc4ccc(C(c5ccc(Cl)cc5)c5ccc(Cl)cc5)cc34)CC2)c1 [Compound 11, 3-(4-(6-(bis(4-chlorophenyl)methyl)cinnolin-4-ylamino)piperidin-1-ylsulfonyl)benzoic acid]
254	> 10000	OC(c1ccc(Cl)cc1)(c1ccc(Cl)cc1)c1ccc2nncc(NCc3cccc(C(F)(F)F)c3)c2c1 [Compound 6, bis(4-chlorophenyl)(4-((3-(trifluoromethyl)benzyl)amino)cinnolin-6-yl)methanol]
35	> 10000	O=S(=O)(c1ccccc1)N1CCC(Nc2cnnc3ccc(C(c4ccc(Cl)cc4)c4ccc(Cl)cc4)cc23)CC1 [Compound 4, 6-(bis(4-chlorophenyl)methyl)-N-(1-(phenylsulfonyl)piperidin-4-yl)cinnolin-4-amine]
302	1480	O=C(O)c1ccc(S(=O)(=O)N2CCC(Nc3cnnc4ccc(C(c5ccc(Cl)cc5)c5ccc(Cl)cc5)cc34)CC2)cc1 [Compound 10, 4-(4-(6-(bis(4-chlorophenyl)methyl)cinnolin-4-ylamino)piperidin-1-ylsulfonyl)benzoic acid]

Compound	EC50 [1] [nM]	EC50 [2] [nM]
Clc1ccc(C(c2ccc(Cl)cc2)c2ccc3nncc(N4CCC(Nc5ccccc5)CC4)c3c2)cc1 [Compound 29, 1-[6-[bis(4-chlorophenyl)methyl]cinnolin-4-yl]-N-phenylpiperidin-4-amine]	99	> 10000
